# In US20090143279A1 (priority 2007, published 2009):
# Where two headings read alike, the source gives them in different places.
# How the values were obtained:
# reactive oxygen species = assay type: cell-based, mouse; conditions: for ROS levels: primary screen, in words; for ROS (composite Z-score): normalized score vs mock-treated (DMSO) wells
# mtOXPHOS transcripts = assay type: cell-based, mouse; conditions: for mitoOX (composite Z-score): normalized score vs mock-treated (DMSO) wells
# [1] = system: mitochondrial membrane potential; assay type: cell-based, mouse; conditions: for ΔΨm (composite Z-score): normalized score vs mock-treated (DMSO) wells
# cytochrome c = assay type: cell-based, mouse; conditions: for cyt c (composite Z-score): normalized score vs mock-treated (DMSO) wells
# [2] = system: cellular dehydrogenase activity; conditions: for MTT (composite Z-score): normalized score vs mock-treated (DMSO) wells
# nuOXPHOS transcripts = assay type: cell-based, mouse; conditions: for nucOX (composite Z-score): normalized score vs mock-treated (DMSO) wells
# Atp5a1 = assay: Quantitative PCR of Atp5a1 (nuOXPHOS) expression; assay type: cell-based, mouse; conditions: for increase of Atp5a1 expression: compound alone, FIG. 6d
# Method: (§1) (a) Compounds indicated in FIG. 4 were retested at 20 nM, 200 nM, 2 μM and 20 μM. Gene expression levels are represented as a row-normalized heat map, with negative controls (DMSO treatment) and positive controls (PGC-1α treatment) shown. Dose-response curves for ROS levels and viability are also provided, where the y-axis is the composite Z-score. Shaded area indicates the noise envelope (P<0.05). Data shown are the results of four biological replicates per concentration. […] (c) Quantitative PCR measurement of Ppargc1a gene expression, in response to either DMSO alone (Con), 5 μM deoxysappanone B (deo) or 1 μM mebendazole (meb). (d) Quantitative PCR measurement of the nuclear OXPHOS gene Atp5a1. Cells were either treated with compound alone (black bars) or in combination with […] of the ERRa inverse agonist XCT790 (gray bars). (e) Quantitative PCR measurement of Sod2, which encodes the ROS scavenger MnSOD, as in (d). Means and s.d. of expression data are the result of four biological replicates.
# (§2) FIG. 8 show measurements of the coupling between nuclear and mitochondrial OXPHOS gene expression. (a) A two-dimensional plot of the composite Z-scores for nuOXPHOS and mtOXPHOS expression is shown. (b) Row-normalized heat map displaying the top 15 compounds in each quadrant (I-IV). Heat map of nuOXPHOS and mtOXPHOS expression is shown along with ATP levels. (c) Real-time PCR validation of select compounds at the indicated doses, using Atp5a1 (nuOXPHOS) and mt-Co1 (mtOXPHOS) normalized to Hprt1 (internal control). Values indicate average fold change from mock-treated (DMSO) wells ±s.d. in four biological replicates.
# (§3) Gene expression. […]. The cDNA was then used for real-time PCR quantification of products for mouse Atp5a1 (Mm00431960_ml), Sod2 (MnSOD; Mm01313000_m1) and Ppargc1a (Mm00447183_m1), with Hprt1 (Mm03024075_m1) serving as an internal control, using TaqMan gene-expression assays (Applied Biosystems).
# OXPHOS gene expression = assay type: cell-based, mouse; conditions: for OXPHOS expression: primary screen, in words; for GE-HTS (composite Z-score): normalized score vs mock-treated (DMSO) wells
# mt-Co1 = assay: Real-time PCR of mt-Co1 (mtOXPHOS) expression; assay type: cell-based, mouse; conditions: 1 μM, FIG. 8c
# Text: as §2, §3
# C2C12 myotubes = conditions: for Viability (composite Z-score): normalized score vs mock-treated (DMSO) wells
# Sod2 = assay: Quantitative PCR of Sod2 (MnSOD) expression; assay type: cell-based, mouse; conditions: in combination with compound, FIG. 6e
# Method: as §1, §3
# Ppargc1a = assay: Quantitative PCR of Ppargc1a expression; assay type: cell-based, mouse; conditions: 5 μM deoxysappanone B or 1 μM mebendazole, FIG. 6c
# Method: as §1, §3
# microtubules = assay: Tubulin immunofluorescence; assay type: cell-based, mouse; conditions: C2C12 myotubes, 48 hours, 10 nM to 10 μM, FIG. 7
# Method: Tubulin immunofluorescence. […] Cells were washed once in 50 μl PBSTB2 (PBS with 0.1% (vol/vol) Tween-20 and 2% (wt/vol) BSA) and blocked in PBSTB2 for 1 h at room temperature or overnight at 4° C. Cells were incubated with an anti-α-tubulin (Sigma-Aldrich) antibody, 1:1,000 in PBSTB2, for 1 h at room temperature, and then washed three times with PBSTB2. […] Cells were visualized using an automated microscope (IX-Micro, Molecular Devices).
# [3] = composite Z-score vs DMSO, Conc 14.22 μM
# [4] = composite Z-score vs DMSO, Conc 20 μM
# [5] = Table 3, differentiated C2C12 myotubes, 48 h treatment, composite Z-score vs DMSO
# [6] = Table 6, C2C12 myotubes, 48 h, composite Z-score
# [7] = normalized composite Z-score vs mock-treated (DMSO) wells, Conc 20 μM
# [8] = retest at 20 nM to 20 μM, FIG. 6a
# [9] = Table 7, C2C12 myotubes, 48 h, composite Z-score
# [10] = 13.54 μM, composite Z-score vs DMSO
# [11] = 20 μM, composite Z-score vs DMSO
# [12] = Table 4, C2C12 myotubes, 48 h, composite Z-score
# [13] = composite Z-score vs mock-treated (DMSO) wells, Conc 20 μM
# cytochrome c, sequence (P62897 whole entry): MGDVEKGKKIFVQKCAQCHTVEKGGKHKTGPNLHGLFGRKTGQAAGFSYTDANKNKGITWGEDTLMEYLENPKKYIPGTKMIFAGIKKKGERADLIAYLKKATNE
compound,measurement,setting,value
"C[C@@H]1C[C@@H]([C@H](O)CC2CC(=O)NC(=O)C2)C(=O)[C@@H](C)C1 [Cycloheximide, reference compound]",ROS,reactive oxygen species; [3],−3.415
same,ROS,reactive oxygen species; [4],−2.628
same,mitoOX,mtOXPHOS transcripts; [3],−4.179
same,mitoOX,mtOXPHOS transcripts; [4],−5.637
same,ΔΨm,[1]; [3],2.318
same,ΔΨm,[1]; [4],2.759
same,cyt c,cytochrome c; [3],−1.378
same,cyt c,cytochrome c; [4],−2.123
same,MTT,[2]; [3],−3.550
same,MTT,[2]; [4],−3.499
same,nucOX,nuOXPHOS transcripts; [3],1.354
same,nucOX,nuOXPHOS transcripts; [4],0.688
same,nuOXPHOS expression,"nuOXPHOS transcripts; screen, relative to mtOXPHOS, in words",preferentially increase
same,nuOXPHOS elevated,"Atp5a1; 1 μM, real-time PCR, FIG. 8c",1.3 fold
same,GE-HTS,OXPHOS gene expression; [3],−0.504
same,GE-HTS,OXPHOS gene expression; [4],−1.482
same,mtOXPHOS decreased,mt-Co1,2.4 fold
same,Viability,C2C12 myotubes; [3],−2.540
same,Viability,C2C12 myotubes; [4],−2.804
COc1cc(/C=C(\C#N)C(=O)Nc2nnc(C(F)(F)F)s2)ccc1OCc1ccc(C(F)(F)F)cc1C(F)(F)F [XCT790],effect of XCT790 on compound-induced Atp5a1 increase,"Atp5a1; in combination with mebendazole or deoxysappanone B, 5 mM XCT790, FIG. 6d",completely inhibited
same,effect of XCT790 on compound-induced MnSOD increase,Sod2,suppressible
"COc1ccc2c(c1)OCC(Cc1ccc(O)c(OC)c1)C2=O (stereo not drawn) [deoxysappanone b 7,3′-dimethyl ether, reference compound]",ROS Zscore,reactive oxygen species; [5],−1.712
same,ROS Zscore,reactive oxygen species; [6],−1.712
same,ROS,reactive oxygen species; [7],−1.712
same,dose at which ROS levels decreased,reactive oxygen species; [8],2 µM
same,mito-OXPHOS Z,mtOXPHOS transcripts; [9],1.38
same,mitoOX,mtOXPHOS transcripts; [7],1.383
same,expression of Ppargc1α,Ppargc1a,approximately threefold
same,ΔΨm,[1]; [7],−0.637
same,cyt c,cytochrome c; [7],−0.951
same,potency required for microtubule disruption,microtubules,the same as that required to affect OXPHOS expression and ROS level
same,MTT,[2]; [7],−2.870
same,nucOXPHOS Z,nuOXPHOS transcripts; [9],2.25
same,nucOX,nuOXPHOS transcripts; [7],2.250
same,increase of Atp5a1 expression,Atp5a1,20%
same,GEHTS_Zscore,OXPHOS gene expression; [5],2.577
same,GEHTS_Zscore,OXPHOS gene expression; [6],2.577
same,GE-HTS,OXPHOS gene expression; [7],2.118
same,dose at which OXPHOS expression increased,OXPHOS gene expression; [8],2 µM
same,Viability,C2C12 myotubes; [7],−1.120
"COC(=O)Nc1nc2ccc(C(=O)c3ccccc3)cc2[nH]1 [mebendazole, methyl[5-benzoyl-benzimidazol-2-carbamate], reference compound]",ROS,reactive oxygen species; [10],−0.791
same,ROS,reactive oxygen species; [11],−1.003
same,ROS Zscore,reactive oxygen species; [5],−1.003
same,ROS levels,reactive oxygen species,suppressing ROS levels
same,dose at which ROS levels decreased,reactive oxygen species; [8],2 µM
same,mitoOX,mtOXPHOS transcripts; [10],0.398
same,mitoOX,mtOXPHOS transcripts; [11],0.824
same,expression of Ppargc1α,Ppargc1a,approximately threefold
same,ΔΨm,[1]; [10],−0.054
same,ΔΨm,[1]; [11],−0.434
same,cyt c,cytochrome c; [10],−0.685
same,cyt c,cytochrome c; [11],−1.473
same,MTT,[2]; [10],−2.797
same,MTT,[2]; [11],−2.060
same,nucOX,nuOXPHOS transcripts; [10],−0.200
same,nucOX,nuOXPHOS transcripts; [11],1.212
same,increase of Atp5a1 expression,Atp5a1,20%
same,GE-HTS,OXPHOS gene expression; [10],0.013
same,GE-HTS,OXPHOS gene expression; [11],1.160
same,GEHTS_Zscore,OXPHOS gene expression; [5],2.846
same,OXPHOS expression,OXPHOS gene expression,boost OXPHOS expression
same,dose at which OXPHOS expression increased,OXPHOS gene expression; [8],2 µM
same,Viability,C2C12 myotubes; [10],0.064
same,Viability,C2C12 myotubes; [11],0.512
"CC(=O)O[C@H]1C(=O)[C@@]2(C)[C@H]([C@H](OC(=O)c3ccccc3)[C@]3(O)C[C@H](OC(=O)[C@H](O)[C@@H](NC(=O)c4ccccc4)c4ccccc4)C(C)=C1C3(C)C)[C@]1(OC(C)=O)CO[C@@H]1C[C@@H]2O [paclitaxel, reference compound]",ROS Zscore,reactive oxygen species; [5],−1.967
same,ROS levels,reactive oxygen species,suppressing ROS levels
same,dose showing effect on ROS level,reactive oxygen species; [8],20 nM
same,potency required for microtubule disruption,microtubules,the same as that required to affect OXPHOS expression and ROS level
same,GEHTS_Zscore,OXPHOS gene expression; [5],2.451
same,OXPHOS expression,OXPHOS gene expression,boost OXPHOS expression
same,dose showing effect on OXPHOS expression,OXPHOS gene expression; [8],20 nM
isoduartin methyl ether [reference compound],ROS (composite Z-score),reactive oxygen species; Conc 20 μM,0.599
same,ROS,reactive oxygen species; [12],0.599
same,mitoOX (composite Z-score),mtOXPHOS transcripts; Conc 20 μM,−0.434
same,ΔΨm (composite Z-score),[1]; Conc 20 μM,−0.777
same,ΔΨm,"[1]; Table 4, C2C12 myotubes, 48 h, JC-1, composite Z-score",−0.777
same,cyt c (composite Z-score),cytochrome c; Conc 20 μM,0.882
same,MTT (composite Z-score),[2]; Conc 20 μM,−2.055
same,MTT,[2]; [12],−2.055
same,nucOX (composite Z-score),nuOXPHOS transcripts; Conc 20 μM,−0.008
same,GE-HTS (composite Z-score),OXPHOS gene expression; Conc 20 μM,−0.182
same,Viability (composite Z-score),C2C12 myotubes; Conc 20 μM,−0.603
same,Viability,C2C12 myotubes; [12],−0.603
khayanthone,ROS,reactive oxygen species; [13],0.015
same,mitoOX,mtOXPHOS transcripts; [13],1.095
same,ΔΨm,[1]; [13],0.962
same,cyt c,cytochrome c; [13],−0.669
same,MTT,[2]; [13],−0.382
same,nucOX,nuOXPHOS transcripts; [13],1.510
same,GE-HTS,OXPHOS gene expression; [13],1.491
same,Viability,C2C12 myotubes; [13],1.156
mepartricin,ROS (composite Z-score),reactive oxygen species; Conc 20 μM,−0.251
same,mitoOX (composite Z-score),mtOXPHOS transcripts; Conc 20 μM,−0.464
same,ΔΨm (composite Z-score),[1]; Conc 20 μM,−0.309
same,cyt c (composite Z-score),cytochrome c; Conc 20 μM,0.264
same,MTT (composite Z-score),[2]; Conc 20 μM,−1.431
same,nucOX (composite Z-score),nuOXPHOS transcripts; Conc 20 μM,−0.728
same,GE-HTS (composite Z-score),OXPHOS gene expression; Conc 20 μM,−0.710
same,Viability (composite Z-score),C2C12 myotubes; Conc 20 μM,−0.568
